Test results reported in patent publication US20110159515A1, “COMPOSITIONS AND METHODS FOR THE RAPID GROWTH AND DETECTION OF MICROORGANISMS” (SOLUS SCIENTIFIC SOLUTIONS LIMITED, priority 2008, published 2011).

How the values were obtained:
S. aberdeen [1] = assay: Direct binding Salmonella assay (chemiluminescence immunosorbent)
Method: After 5 hours of culture, a 2 ml aliquot of the sample was removed and SDS was added to a final concentration of 0.5% (w/v). The sample was heated to 100° C. for 5 minutes and allowed to cool. One hundred microlitres of each test sample was added directly to a well of a solid white 96 well high binding microtitre plate (Greiner Bio One) and incubated at 37° C. for 30 minutes. During incubation, the lipid A portion of the LPS binds to the surface of the plate via non-covalent hydrophobic interactions (FIG. 1a (1), FIG. 1b(1)).
The final concentration of antibody per well was 50 ng. The plate-bound sample (Salmonella LPS/core oligosaccharide) and antibody were incubated in the coated wells for 30 minutes as 37° C. Following incubation, plates were washed three times in wash buffer and pat dried prior to detection (FIG. 1a(2), FIG. 1b(2)).
When the anti-Salmonella is directly labelled with acridinium ester, plates were placed into a luminometer. 30 μl of trigger solution A and 60 μl of trigger solution B was added to each well of the microtitre plate to initiate light output from conjugated acridinium ester (FIG. 1a(3)). The luminometer settings were as follows:
When the anti-Salmonella antibody is not labelled, a second binding member, a goat anti-mouse IgG2b conjugate is used. Post column IgG2b was diluted 1:100 in a diluent comprising 3% (w/v) non-fat milk powder and 0.05% (v/v) Tween 20 and 100 ul of this solution was added to each well of the plate (FIG. 1b(3)). Following incubation at 37° C. for 60 minutes the plate was washed four times in wash buffer, dried and read as above (FIG. 1b(4)).
The wells of an assay plate are coated with standard concentrations of bacteria for 1 hour at 37° C. These standard concentrations are: 10^6, 10^5, 5×10^4, 2.5×10^4, 10^4 and 5×10^3 and blank wells containing 10^6 E. coli. The fractions to be tested are diluted 1:100 in assay buffer and […] is added to each well and incubated at 37° C. for 20 minutes. The wells are then read on the luminometer, as above.

S. aberdeen [2] = assay: as above; details: for signal, direct binding Salmonella assay: conjugate 1:100; for signal, release and detection of core oligosaccharide: 0.1% SDS

For CCCCCCCCCCCCOS(=O)(=O)[O-].[Na+] [SDS, sodium dodecyl sulphate], the “signal, direct binding Salmonella assay” value (S. aberdeen [1]; 0.5% SDS (second block), conjugate 1:100, 5 × 10^4 S. aberdeen, black and white plates) was 2,213 ± 170, the “signal, release and detection of core oligosaccharide” value (“signal, release and detection” below) (S. aberdeen [1]; 0.5% SDS, 10^4 bacteria (species not given)) was 495603 relative light units and the “enhancement of binding between binding member (antibody) and epitope” value (S. aberdeen [1]; direct assay) was ≤ 10 fold. The “signal, direct binding Salmonella assay” value (S. aberdeen [2]; 0% SDS, 2.5 × 10^4 S. aberdeen, black and white plates) was 1,617 ± 250, the “signal, direct binding Salmonella assay” value (S. aberdeen [2]; 0% SDS, 5 × 10^3 S. aberdeen, black and white plates) was 575 ± 120 and the “signal, direct binding Salmonella assay” value (S. aberdeen [2]; 0% SDS, 5 × 10^4 S. aberdeen, black and white plates) was 2,027 ± 206. The “signal, direct binding Salmonella assay” value (S. aberdeen [2]; 0% SDS, 10^4 S. aberdeen, black and white plates) was 1,102 ± 357, the “signal, direct binding Salmonella assay” value (S. aberdeen [2]; 0% SDS, 10^5 S. aberdeen, black and white plates) was 3,131 ± 121 and the “signal, direct binding Salmonella assay” value (S. aberdeen [2]; 0% SDS, 10^6 S. aberdeen, black and white plates) was 24,566 ± 4,287. The “signal, direct binding Salmonella assay” value (S. aberdeen [2]; 0% SDS, Peptone, black and white plates) was 643 ± 54, the “signal, direct binding Salmonella assay” value (S. aberdeen [2]; 0.1% (w/v) SDS, 2.5 × 10^4 S. aberdeen, white plate, Lucy I) was 28,622 ± 2,162 and the “signal, direct binding Salmonella assay” value (S. aberdeen [2]; 0.1% (w/v) SDS, 5 × 10^3 S. aberdeen, white plate, Lucy I) was 8,536 ± 1,520. The “signal, direct binding Salmonella assay” value (S. aberdeen [2]; 0.1% (w/v) SDS, 5 × 10^4 S. aberdeen, white plate, Lucy I) was 51,909 ± 3,036, the “signal, direct binding Salmonella assay” value (S. aberdeen [2]; 0.1% (w/v) SDS, 10^4 S. aberdeen, white plate, Lucy I) was 11,324 ± 2,770 and the “signal, direct binding Salmonella assay” value (S. aberdeen [2]; 0.1% (w/v) SDS, 10^5 S. aberdeen, white plate, Lucy I) was 143,796 ± 4,297. The “signal, direct binding Salmonella assay” value (S. aberdeen [2]; 0.1% (w/v) SDS, 10^6 S. aberdeen, white plate, Lucy I) was 356,444 ± 102,877, the “signal, direct binding Salmonella assay” value (S. aberdeen [2]; 0.1% (w/v) SDS, Peptone, white plate, Lucy I) was 4,288 ± 1.653 and the “signal, direct binding Salmonella assay” value (S. aberdeen [2]; 0.1% SDS (first block), 2.5 × 10^4 S. aberdeen, black and white plates) was 1,277 ± 211. The “signal, direct binding Salmonella assay” value (S. aberdeen [2]; 0.1% SDS (first block), 5 × 10^3 S. aberdeen, black and white plates) was 591 ± 1, the “signal, direct binding Salmonella assay” value (S. aberdeen [2]; 0.1% SDS (first block), 5 × 10^4 S. aberdeen, black and white plates) was 1,297 ± 4 and the “signal, direct binding Salmonella assay” value (S. aberdeen [2]; 0.1% SDS (first block), 10^4 S. aberdeen, black and white plates) was 1,662 ± 531. For the same compound, the “signal, direct binding Salmonella assay” value (S. aberdeen [2]; 0.1% SDS (first block), 10^5 S. aberdeen, black and white plates) was 2,386 ± 263, the “signal, direct binding Salmonella assay” value (S. aberdeen [2]; 0.1% SDS (first block), 10^6 S. aberdeen, black and white plates) was 16,738 ± 1051 and the “signal, direct binding Salmonella assay” value (S. aberdeen [2]; 0.1% SDS (first block), Peptone, black and white plates) was 643 ± 54. For the same compound, the “signal, direct binding Salmonella assay” value (S. aberdeen [2]; 0.1% SDS (second block), 2.5 × 10^4 S. aberdeen, black and white plates) was 1,442 ± 28^, the “signal, direct binding Salmonella assay” value (S. aberdeen [2]; 0.1% SDS (second block), 5 × 10^3 S. aberdeen, black and white plates) was 678 ± 40 and the “signal, direct binding Salmonella assay” value (S. aberdeen [2]; 0.1% SDS (second block), 5 × 10^4 S. aberdeen, black and white plates) was 2321 ± 437. The “signal, direct binding Salmonella assay” value (S. aberdeen [2]; 0.1% SDS (second block), 10^4 S. aberdeen, black and white plates) was 930 ± 21, the “signal, direct binding Salmonella assay” value (S. aberdeen [2]; 0.1% SDS (second block), 10^5 S. aberdeen, black and white plates) was 4,654 ± 636 and the “signal, direct binding Salmonella assay” value (S. aberdeen [2]; 0.1% SDS (second block), 10^6 S. aberdeen, black and white plates) was 28,169 ± 1516. The “signal, direct binding Salmonella assay” value (S. aberdeen [2]; 0.1% SDS (second block), Peptone, black and white plates) was 503 ± 76, the “signal, release and detection” value (S. aberdeen [2]; 10^1 bacteria (species not given)) was 10248 relative light units and the “signal, release and detection” value (S. aberdeen [2]; 10^2 bacteria (species not given)) was 9525 relative light units. The “signal, release and detection” value (S. aberdeen [2]; 10^3 bacteria (species not given)) was 12375 relative light units, the “signal, release and detection” value (S. aberdeen [2]; 10^4 bacteria (species not given)) was 65960 relative light units and the “signal, release and detection” value (S. aberdeen [2]; 10^5 bacteria (species not given)) was 717259 relative light units. For the same compound, the “signal, release and detection” value (S. aberdeen [2]; 10^6 bacteria (species not given)) was 895811 relative light units, the “signal, direct binding Salmonella assay” value (S. aberdeen [2]; 0.2% (w/v) SDS, 2.5 × 10^4 S. aberdeen, white plate, Lucy I) was 27,339 ± 2,635 and the “signal, direct binding Salmonella assay” value (S. aberdeen [2]; 0.2% (w/v) SDS, 5 × 10^3 S. aberdeen, white plate, Lucy I) was 10,334 ± 2,264. For the same compound, the “signal, direct binding Salmonella assay” value (S. aberdeen [2]; 0.2% (w/v) SDS, 5 × 10^4 S. aberdeen, white plate, Lucy I) was 75,900 ± 5,798, the “signal, direct binding Salmonella assay” value (S. aberdeen [2]; 0.2% (w/v) SDS, 10^4 S. aberdeen, white plate, Lucy I) was 11,098 ± 828^ and the “signal, direct binding Salmonella assay” value (S. aberdeen [2]; 0.2% (w/v) SDS, 10^5 S. aberdeen, white plate, Lucy I) was 112,096 ± 3,841. For the same compound, the “signal, direct binding Salmonella assay” value (S. aberdeen [2]; 0.2% (w/v) SDS, 10^6 S. aberdeen, white plate, Lucy I) was 365,496 ± 12,729, the “signal, direct binding Salmonella assay” value (S. aberdeen [2]; 0.2% (w/v) SDS, Peptone, white plate, Lucy I) was 3,904 ± 59^ and the “signal, direct binding Salmonella assay” value (S. aberdeen [2]; 0.3% SDS, 2.5 × 10^4 S. aberdeen, white plate, Lucy I) was 38,450 ± 1,411. The “signal, direct binding Salmonella assay” value (S. aberdeen [2]; 0.3% SDS, 5 × 10^3 S. aberdeen, white plate, Lucy I) was 14,313 ± 2,881, the “signal, direct binding Salmonella assay” value (S. aberdeen [2]; 0.3% SDS, 5 × 10^4 S. aberdeen, white plate, Lucy I) was 123,881 ± 15,994 and the “signal, direct binding Salmonella assay” value (S. aberdeen [2]; 0.3% SDS, 10^4 S. aberdeen, white plate, Lucy I) was 14,314 ± 617^. The “signal, direct binding Salmonella assay” value (S. aberdeen [2]; 0.3% SDS, 10^5 S. aberdeen, white plate, Lucy I) was 209,913 ± 40,150, the “signal, direct binding Salmonella assay” value (S. aberdeen [2]; 0.3% SDS, 10^6 S. aberdeen, white plate, Lucy I) was 352,714 ± 88,260 and the “signal, direct binding Salmonella assay” value (S. aberdeen [2]; 0.3% SDS, Peptone, white plate, Lucy I) was 3,026 ± 473. The “signal, direct binding Salmonella assay” value (S. aberdeen [2]; 0.4% SDS, 2.5 × 10^4 S. aberdeen, white plate, Lucy I) was 59,399 ± 13,550.
